According to article PMC7316745, “A small-molecule ARTS mimetic promotes apoptosis through degradation of both XIAP and Bcl-2” (Cell Death & Disease, 2020):

Experiments:
XIAP = target: T1, XIAP (Homo sapiens, UniProt P98170); experiment: microscale thermophoresis (MST); format: binding
T1 construct: recombinant untagged XIAP, NT650-labelled (maleimide coupling)

786-0 = experiment: cells; parameters: Sulforhodamine B growth/viability assay on tumour cell line panel (Oncolead), six dilutions, compound replenished daily; conditions: Homo sapiens, 786-0; 72 h, SRB; read-out: Supplementary table 1 / A4 IC50
Procedure: (§1) Screening of 94 different cancer cell lines spanning over 18 human tissues was performed by Oncolead Ltd. The company used an identical platform to the one NIH, NCI-60 uses to assess the effect of a compound on the viability of a variety of tumour cell lines. Briefly, cells are treated with a series of six dilutions of a compound for 72 h (compound is replenished daily). After 72 h, cells were fixed (living cells are attached to the plate), and then washed to remove dead and dying cells. Cells were then stained with a dye (sulforhodamine B) that dyes all proteins purple, which is measured by a plate reader and provides quantification of living cells. The number of cells treated with the compound is compared to the number of cells treated with DMSO (solvent). The inhibitory concentration (IC) value was calculated by taking the number of cells after 72 h of treatment and dividing by the number of cells after 72 h treatment with DMSO (C). IC50 is the value calculated from the dose–response plot, which is the concentration of the compound that has 50% decrease of the IC. To determine the specificity of A4 killing for various types of cancer, a panel of 94 cancer cell lines representing 18 different types of cancers were tested. The IC50 values for each cell line treated with A4 were determined (Oncolead Ltd). The cancers that were most sensitive to A4 killing were of haematological origin (8/12 different cell lines), melanoma (3/5 lines), pancreatic cancer and 4/7 lung cancers. Importantly, peripheral blood mononuclear cells (PBMCs), representing healthy normal cells, and 184A1, a normal human epithelium mammary gland cell, were not killed by A4 (Fig. 5a, Supplementary Table 1 and Fig. 5cI, respectively). To explore whether the levels of XIAP and Bcl-2 protein affect the sensitivity to A4, we analysed the available web proteomes and looked for a correlation. While data regarding XIAP expression levels were found in most proteomes (28 of 32 proteomes), Bcl-2 expression data were only detected in few (9 of 32 proteomes) (data not shown). A significant correlation was found between XIAP expression levels (ratio to actin, GAPDH) and the sensitivity to A4 (IC50, µM) in breast, ovary and kidney carcinomas (Fig. 5bI, II and Supplementary Tables 1 and 2). Cancer cell lines with high levels of XIAP were particularly sensitive to the killing effect of A4 (Fig. 5bI, II and Supplementary Tables 1 and 2). […] To further confirm that A4 functions as a specific antagonist for XIAP, we performed a SKOV-3 rescue assay. SKOV-3 ovarian carcinoma cells are highly sensitive to SMs[49]. SMs act by antagonizing cIAPs, an event that leads to cell death when complemented by an XIAP-dependent increase in TNFα production[47],[48],[58]. In SKOV-3 cells, XIAP is required for TNFα production, which recruits cIAP into a complex that activates caspase-8 and apoptosis through the extrinsic pathway (Fig. 6a)[49]. Knockdown of XIAP in SKOV-3 cells bestowed resistance to SMs[49]. We utilized this assay to investigate the specificity of A4 for XIAP compared to cIAPs. Treatment with 1 μM of the SM Birinapant for […]

ACHN = experiment: cells; parameters: Sulforhodamine B growth/viability assay on tumour cell line panel (Oncolead), six dilutions, compound replenished daily; conditions: Homo sapiens, ACHN; 72 h, SRB; read-out: Supplementary table 1 / A4 IC50
Procedure: as §1

COLO205 = experiment: cells; parameters: Sulforhodamine B growth/viability assay on tumour cell line panel (Oncolead), six dilutions, compound replenished daily; conditions: Homo sapiens, COLO 205; 72 h, SRB; read-out: Supplementary table 1 / A4 IC50
Procedure: as §1

COLO678 = experiment: cells; parameters: Sulforhodamine B growth/viability assay on tumour cell line panel (Oncolead), six dilutions, compound replenished daily; conditions: Homo sapiens, COLO-678; 72 h, SRB; read-out: Supplementary table 1 / A4 IC50
Procedure: as §1

Caco-2 = experiment: cells; parameters: Sulforhodamine B growth/viability assay on tumour cell line panel (Oncolead), six dilutions, compound replenished daily; conditions: Homo sapiens, Caco-2; 72 h, SRB; read-out: Supplementary table 1 / A4 IC50
Procedure: as §1

Caki1 = experiment: cells; parameters: Sulforhodamine B growth/viability assay on tumour cell line panel (Oncolead), six dilutions, compound replenished daily; conditions: Homo sapiens, CAKI-1; 72 h, SRB; read-out: Supplementary table 1 / A4 IC50
Procedure: as §1

DLD1 = experiment: cells; parameters: Sulforhodamine B growth/viability assay on tumour cell line panel (Oncolead), six dilutions, compound replenished daily; conditions: Homo sapiens, DLD-1; 72 h, SRB; read-out: Supplementary table 1 / A4 IC50
Procedure: as §1

HCT116 = experiment: cells; parameters: Sulforhodamine B growth/viability assay on tumour cell line panel (Oncolead), six dilutions, compound replenished daily; conditions: Homo sapiens, HCT-116; 72 h, SRB; read-out: Supplementary table 1 / A4 IC50
Procedure: as §1

HCT15 = experiment: cells; parameters: Sulforhodamine B growth/viability assay on tumour cell line panel (Oncolead), six dilutions, compound replenished daily; conditions: Homo sapiens, HCT-15; 72 h, SRB; read-out: Supplementary table 1 / A4 IC50
Procedure: as §1

HEK293 = experiment: cells; parameters: Sulforhodamine B growth/viability assay on tumour cell line panel (Oncolead), six dilutions, compound replenished daily; conditions: Homo sapiens, HEK293; 72 h, SRB; read-out: Supplementary table 1 / A4 IC50
Procedure: as §1

HS578T = experiment: cells; parameters: Sulforhodamine B growth/viability assay on tumour cell line panel (Oncolead), six dilutions, compound replenished daily; conditions: Homo sapiens, Hs-578T; 72 h, SRB; read-out: Supplementary table 1 / A4 IC50
Procedure: as §1

HT-29 = experiment: cells; parameters: Sulforhodamine B growth/viability assay on tumour cell line panel (Oncolead), six dilutions, compound replenished daily; conditions: Homo sapiens, HT-29; 72 h, SRB; read-out: Supplementary table 1 / A4 IC50
Procedure: as §1

IGROV-1 = experiment: cells; parameters: Sulforhodamine B growth/viability assay on tumour cell line panel (Oncolead), six dilutions, compound replenished daily; conditions: Homo sapiens, IGROV-1; 72 h, SRB; read-out: Supplementary table 1 / A4 IC50
Procedure: as §1

LOVO = experiment: cells; parameters: Sulforhodamine B growth/viability assay on tumour cell line panel (Oncolead), six dilutions, compound replenished daily; conditions: Homo sapiens, LoVo; 72 h, SRB; read-out: Supplementary table 1 / A4 IC50
Procedure: as §1

MCF-7 = experiment: cells; parameters: Sulforhodamine B growth/viability assay on tumour cell line panel (Oncolead), six dilutions, compound replenished daily; conditions: Homo sapiens, MCF7; 72 h, SRB; read-out: Supplementary table 1 / A4 IC50
Procedure: as §1

MDAMB231 = experiment: cells; parameters: Sulforhodamine B growth/viability assay on tumour cell line panel (Oncolead), six dilutions, compound replenished daily; conditions: Homo sapiens, MDA-MB-231; 72 h, SRB; read-out: Supplementary table 1 / A4 IC50
Procedure: as §1

MDAMB436 = experiment: cells; parameters: Sulforhodamine B growth/viability assay on tumour cell line panel (Oncolead), six dilutions, compound replenished daily; conditions: Homo sapiens, MDA-MB-436; 72 h, SRB; read-out: Supplementary table 1 / A4 IC50
Procedure: as §1

MDAMB468 = experiment: cells; parameters: Sulforhodamine B growth/viability assay on tumour cell line panel (Oncolead), six dilutions, compound replenished daily; conditions: Homo sapiens, MDA-MB-468; 72 h, SRB; read-out: Supplementary table 1 / A4 IC50
Procedure: as §1

OVCAR3 = experiment: cells; parameters: Sulforhodamine B growth/viability assay on tumour cell line panel (Oncolead), six dilutions, compound replenished daily; conditions: Homo sapiens, OVCAR-3; 72 h, SRB; read-out: Supplementary table 1 / A4 IC50
Procedure: as §1

OVCAR4 = experiment: cells; parameters: Sulforhodamine B growth/viability assay on tumour cell line panel (Oncolead), six dilutions, compound replenished daily; conditions: Homo sapiens, OVCAR-4; 72 h, SRB; read-out: Supplementary table 1 / A4 IC50
Procedure: as §1

SKBR3 = experiment: cells; parameters: Sulforhodamine B growth/viability assay on tumour cell line panel (Oncolead), six dilutions, compound replenished daily; conditions: Homo sapiens, SK-BR-3; 72 h, SRB; read-out: Supplementary table 1 / A4 IC50
Procedure: as §1

SKOV-3 = experiment: cells; parameters: Sulforhodamine B growth/viability assay on tumour cell line panel (Oncolead), six dilutions, compound replenished daily; conditions: Homo sapiens, SK-OV-3; 72 h, SRB; read-out: Supplementary table 1 / A4 IC50
Procedure: as §1

SW620 = experiment: cells; parameters: Sulforhodamine B growth/viability assay on tumour cell line panel (Oncolead), six dilutions, compound replenished daily; conditions: Homo sapiens, SW-620; 72 h, SRB; read-out: Supplementary table 1 / A4 IC50
Procedure: as §1

UO31 = experiment: cells; parameters: Sulforhodamine B growth/viability assay on tumour cell line panel (Oncolead), six dilutions, compound replenished daily; conditions: Homo sapiens, UO-31; 72 h, SRB; read-out: Supplementary table 1 / A4 IC50
Procedure: as §1

T1 sequence (P98170 whole entry): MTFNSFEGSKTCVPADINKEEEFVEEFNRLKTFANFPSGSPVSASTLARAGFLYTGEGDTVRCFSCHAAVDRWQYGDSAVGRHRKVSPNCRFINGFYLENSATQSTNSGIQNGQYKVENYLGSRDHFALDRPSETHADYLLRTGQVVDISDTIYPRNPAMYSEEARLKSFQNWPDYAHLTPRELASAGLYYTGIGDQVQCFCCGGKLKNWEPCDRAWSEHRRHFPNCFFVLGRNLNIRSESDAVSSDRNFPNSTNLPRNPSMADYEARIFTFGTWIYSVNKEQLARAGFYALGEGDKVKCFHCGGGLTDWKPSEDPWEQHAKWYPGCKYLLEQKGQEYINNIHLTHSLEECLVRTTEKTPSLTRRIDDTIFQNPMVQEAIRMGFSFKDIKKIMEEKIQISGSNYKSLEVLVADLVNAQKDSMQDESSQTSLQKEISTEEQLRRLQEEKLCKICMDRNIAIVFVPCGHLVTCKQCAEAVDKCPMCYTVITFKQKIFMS

## COC(=O)c1[nH]c2ccc(Cl)cc2c1NC(=O)CN1CCN(Cc2ccccc2)CC1 [A4, methyl 5-chloro-3-[[2-[4-(phenylmethyl)piperazin-1-yl]acetyl]amino]-1H-indole-2-carboxylat]
XIAP
  Kd: 0.348 ± 0.228 µM
786-0
  IC50: 6.3 µM
ACHN
  IC50: 5.99 µM
COLO205
  IC50: 7.38 µM
COLO678
  IC50: 14.4 µM
Caco-2
  IC50: 8.14 µM
Caki1
  IC50: 8.14 µM
DLD1
  IC50: 8.24 µM
HCT116
  IC50: 11.2 µM
HCT15
  IC50: 5.03 µM
HEK293
  IC50: 2.8 µM
HS578T
  IC50: 9.56 µM
HT-29
  IC50: 1.84 µM
IGROV-1
  IC50: 8.08 µM
LOVO
  IC50: 5.96 µM
MCF-7
  IC50: 4.61 µM
MDAMB231
  IC50: 10.1 µM
MDAMB436
  IC50: 7.16 µM
MDAMB468
  IC50: 6.22 µM
OVCAR3
  IC50: 8.4 µM
OVCAR4
  IC50: 9.99 µM
SKBR3
  IC50: 7.98 µM
SKOV-3
  IC50: 13.6 µM
SW620
  IC50: 10.4 µM
UO31
  IC50: 6.48 µM
